# Results published in patent publication US20240285586A1, “METHODS FOR TREATING BACTERIAL CELL POPULATIONS” (THE HONG KONG POLYTECHNIC UNIVERSITY, priority 2021, published 2024).
# What was measured:
# [1] = system: E. coli; experiment: Membrane potential assay DiSC3(5), E. coli; format: cell-based, Escherichia coli; conditions: econazole 40 μM, cells starved 24 hrs
# Protocol: Membrane potential assay. The transmembrane electrical potential was measured by using a membrane potential-sensitive probe, DiSC3(5). Bacterial population in either the exponential phase (OD600 of 0.2) or under 24 hrs starvation (resuspended in saline) were collected by centrifugation (6000×g, 2 mins), washed twice and re-suspended in PBS (pH 7.4), and then adjusted to OD600 of 0.2. KCl and DiSC3(5) were added until final concentration of 100 mM and 1 μM was respectively reached, followed by incubation at room temperature for 25 mins in the dark to allow the dye to penetrate through the outer membrane and produce a quenching effect. […] The fluorescence reading was monitored by using a Clariostar Microplate Reader (BMG LABTECH) at an excitation wavelength of 622±10 nm and an emission wavelength of 670±10 nm for 10 mins. Upon depolarization, the dye was rapidly released into the medium, resulting in dequenching and facilitating detection fluorometrically. […] The sample preparation method is same as that prior to testing with the Microplate Reader except for the last step. Briefly, cells were washed with PBS three times before confocal observation to remove extracellular DiSC3(5) dye. […] DiSC3(5) was excited by 638 nm laser and fluorescence was detected by HyD detector at emission wavelength 675±25 nm. The images were acquired and analyzed by the Leica Application Suite X (LAS X) software. […]
# [2] = system: E. coli BW25113; experiment: Starvation-induced tolerance assay, wild type E. coli; format: cell-based, Escherichia coli
# Protocol: (§1) Tolerance assay. […] Standard serial dilution and plating on LB agar was performed before and after ampicillin treatment for 4 hrs, 2 days, 4 days and 6 days to determine the fraction of the test population that survived at different time points during the course of treatment.
# (§2) Standard serial dilution and plating on LB agar was performed on samples collected every 24 hrs to assess changes in the size of the sub-population that survived during the treatment process.
# (§3) Upon reaching the exponential phase, bacteria were washed and re-suspended in saline (0.9% NaCl), and then incubated at 37° C. under constant shaking (250 rpm/min) for 24 hrs. […] Standard serial dilution and plating on LB agar were performed before and after ampicillin treatment for 4 hrs, 1 day, 2 days and 4 days to determine the fraction of the test population that survived at different time points during the course of treatment.
# [3] = system: S. typhimurium; experiment: Starvation-induced tolerance assay, S. typhimurium; format: cell-based
# Protocol: as §1, §2, §3
# [4] = system: S. aureus ATCC29213; experiment: Minimal inhibitory concentration, S. aureus; format: cell-based; conditions: Staphylococcus aureus, 16 hours, Mueller Hinton Broth
# From the text: (§4) Determination of Minimal Inhibitory Concentrations (MICs).
# [5] = general statement; cited from earlier work
# [6] = system: K. pneumoniae; experiment: Starvation-induced tolerance assay, K. pneumoniae; format: cell-based, Klebsiella pneumoniae
# Protocol: as §1, §2, §3
# [7] = system: carbapenem resistant E. coli J53 strain which expressed the carbapenemase NDM-1; experiment: Starvation-induced tolerance assay, carbapenem-resistant E. coli; format: cell-based, Escherichia coli; conditions: econazole + sub-lethal dose of meropenem (40 μg/ml), nutrient starvation
# Protocol: Upon reaching the exponential phase, bacteria were washed and re-suspended in saline (0.9% NaCl), and then incubated at 37° C. under constant shaking (250 rpm/min) for 24 hrs. […]
# [8] = system: E. coli tolerant cells; experiment: Scanning electron microscopy of tolerant cells; format: cell-based, Escherichia coli; conditions: for cell morphology under SEM: 24 hours
# Protocol: Electron microscopy analysis. E. coli which had been subjected to starvation for 24 hours were treated with econazole alone, ampicillin alone and a combination of econazole and ampicillin for 24 hours, followed by examination under scanning electron microscopy (SEM). Cells treated with saline were included as negative control. Briefly, bacterial cells were fixed in 0.4% polyoxymethylene overnight and then in Osmium tetroxide (OsO4) for 2 hrs, followed by washing for three times with PBS. The cells were then dehydrated using pure ethanol, and infiltrated and embedded in Spurr resin for examination by SEM.
# [9] = system: E. coli J53 (mcr-1); experiment: MIC of colistin in presence and absence of compound, broth dilution; format: cell-based, Escherichia coli; conditions: antibiotic resistant E. coli (FIG. 20)
# [10] = system: A. baumannii; experiment: Starvation-induced tolerance assay, A. baumannii; format: cell-based, Acinetobacter baumannii
# Protocol: as §1, §2, §3
# [11] = system: Gram negative strains; experiment: Minimal inhibitory concentration, Gram negative strains; format: cell-based; conditions: all Gram negative test strains
# From the text: as §4
# [12] = system: S. aureus; experiment: Starvation-induced tolerance assay, S. aureus; format: cell-based, Staphylococcus aureus
# Protocol: as §1, §2, §3
# [13] = system: S. aureus; experiment: Membrane potential assay DiSC3(5), S. aureus; format: cell-based, Staphylococcus aureus; conditions: econazole 40 μM, cells starved 24 hrs
# Protocol: (§5) Assessment of effect of econazole on membrane potential. Fluorometric measurement of membrane potential of bacterial cells was performed using the voltage-sensitive dye DiSC3(5). The test organisms were first subjected to starvation for 24 hrs and then centrifuged and washed twice with PBS. The cell pellet was resuspended in PBS containing 100 mM of KCl to a final concentration of OD 0.2. The cells were incubated with 1 μM of DiSC3(5) for 5 min under shaking in dark. The cells were treated with econazole (40 μM); a no treatment control was included. The fluorometric measurements were carried out on black polystyrene microtiter plates using a Clariostar Microplate Reader (BMG LABTECH), with excitation wavelength at 610 nm and emission wavelength at 660 nm.
# [14] = system: P. aeruginosa; experiment: Membrane potential assay DiSC3(5), P. aeruginosa; format: cell-based, Pseudomonas aeruginosa; conditions: econazole 40 μM, cells starved 24 hrs
# Protocol: as §5
# [15] = system: E. coli BW25113; experiment: Mouse deep-seated thigh infection model; format: in vivo, Escherichia coli
# Protocol: NIH mice were purchased from the Guangdong Center for Experimental Animals, Guangzhou, China. Male mice at ˜6 weeks of age with a weight of ˜20 g were used in the experiments, 6 mice per group. The animals were allowed to acclimate to the housing facility for 5 days. The mice were made neutropenic by administering 150 mg/kg cyclophosphamide 3 days and 1 day before infection. An inoculum of 1×10^6 CFU of E. coli BW25113 was injected into the right thigh of the mouse. At 24 hrs post-infection, the mice in each group received ceftazidime (20 mg/kg), econazole (20 mg/kg) or ceftazidime combining econazole treatment (i.p.) every 12 hrs for 72 hrs randomly. The mice were then euthanized and the infected thighs were aseptically excised and homogenized in PBS; the number of E. coli present in the samples was enumerated by serial dilution, spreading on LB plates, and incubation at 37° C. overnight. The population size of bacteria that survived different treatments was recorded, compared and analyzed by one-way ANOVA and post hoc Tukey test. The data were presented by using the Graph Pad Prism software. All experimental protocols followed the standard operating procedures of the Biosafety level 2 animal facilities approved by the Animal Ethics Committee of The City University of Hong Kong.
# [16] = system: S. typhimurium PY1; experiment: Mouse peritonitis infection (tolerance sepsis) model; format: in vivo
# Protocol: NIH male mice of about six-weeks-old with body weight of ˜20 g were used, 6 mice per group. The animals were allowed to acclimate to the housing facility for 5 days. The mice were made neutropenic by administering 150 mg/kg cyclophosphamide 3 days and 1 day before infection. Different amounts of S. typhimurium strain PY01 (2.8×10^5 CFU, 7.6×10^5 CFU or 1.5×10^6 CFU) were inoculated into the animals via intraperitoneal injection. The mice were subjected to ceftazidime (20 mg/kg), econazole (20 mg/kg) or ceftazidime combining econazole treatment (i.p.) 24 h after inoculation, at 12 hrs intervals for 72 hrs randomly. The mortality rate of the test mice was recorded every 12 hrs. After 72 h of treatment, live mice were euthanized and subjected to peritoneal washes which involved injection of 2 mL of saline into the intraperitoneal space, followed by abdominal massage. The abdomen was then cut open and 200 μL of peritoneal fluid were collected and serially diluted in saline. A 100 μL portion of each dilution was spread on LB plates, followed by incubation overnight at 37° C. Colonies were counted to determine the bacterial load in the test samples, which were expressed as CFU/ml. Statistical analysis and ethic approval were the same as described above.
# [17] = system: P. aeruginosa; experiment: Starvation-induced tolerance assay, P. aeruginosa; format: cell-based, Pseudomonas aeruginosa
# Protocol: as §1, §2, §3
smiles,measurement,setting,value
Clc1ccc(COC(Cn2ccnc2)c2ccc(Cl)cc2Cl)cc1 (stereo not drawn) [econazole],effect on PMF (DiSC3(5) fluorescence),[1],caused dissipation of PMF
same,time to eradication of the entire tolerant population,[2]; econazole 40 μM + ampicillin 10×MIC,24 h
same,effect of co-administration with ampicillin,"[2]; econazole + ampicillin, E. coli",pronounced bactericidal synergistic effect
same,treatment time at which all tolerant cells were killed,[2]; econazole + ciprofloxacin (1 μg/ml),24 h
same,size of bacterial population that survived,"[2]; econazole + ciprofloxacin (1 μg/ml), 4 hrs",about 200 CFU/mL
same,treatment time at which all tolerant cells were killed,[2]; econazole + gentamicin (20 μg/ml),24 h
same,size of bacterial population that survived,"[2]; econazole + gentamicin (20 μg/ml), 4 hrs",about 200 CFU/mL
same,size of the population that survived,"[2]; econazole alone, 4 hrs",about 1.7×10^5 CFU/mL
same,population size,"[2]; econazole alone, 24 hrs",~1×10^4 CFU/mL
same,effect of co-administration with ampicillin,[3]; econazole + ampicillin,pronounced bactericidal synergistic effect
same,time to eradication of the tolerant sub-population,[3]; econazole + ampicillin,≤ 96 h
same,size of the tolerant population,"[3]; econazole + ceftazidime (100 μg/ml), within 96 hrs (FIG. 16F)",~500 CFU/mL
same,killing of tolerant cells,"[3]; econazole alone, 40 μM",slight killing effect
same,MIC,[4],40 µM
same,toxicity or safety in human,[5],proven safe
same,effect of co-administration with ampicillin,[6]; econazole + ampicillin,pronounced bactericidal synergistic effect
same,time to eradication of the entire tolerant sub-population,[6]; econazole + ampicillin,≤ 24 h
same,killing of tolerant cells,"[6]; econazole alone, 40 μM",slight killing effect
same,effect on the tolerant sub-population,[7],eradicate the tolerant sub-population
same,cell morphology under SEM,[8]; econazole 40 μM + ampicillin 100 μg/ml,cell membrane structure was severely damaged
same,cell morphology under SEM,[8]; econazole 40 μM alone,"rough cell surface, as well as leakage of intracellular material"
same,membrane damage or morphological changes,"[8]; econazole, exponentially growing cells (data not shown)",not found to cause any detectable membrane damage or morphological changes
same,effect of co-administration with colistin,[9],bactericidal synergistic effect
same,effect of co-administration with ampicillin,[10]; econazole + ampicillin,pronounced bactericidal synergistic effect
same,time to eradication of the entire tolerant sub-population,[10]; econazole + ampicillin,≤ 24 h
same,killing of tolerant cells,"[10]; econazole alone, 40 μM",slight killing effect
same,MIC,[11],> 160 µM
same,effect of co-administration with ampicillin,[12]; econazole + ampicillin,pronounced bactericidal synergistic effect
same,time to eradication of tolerant cells,"[12]; econazole alone, 40 μM",≤ 96 h
same,effect on PMF (DiSC3(5) fluorescence),[13],caused dissipation of PMF
same,effect on PMF (DiSC3(5) fluorescence),[14],caused dissipation of PMF
same,eradication of E. coli tolerant cells compared with ceftazidime (20 mg/Kg) alone,"[15]; econazole 20 mg/kg + ceftazidime 20 mg/Kg i.p. every 12 hrs for 72 hrs, P=0.031",significantly more
same,eradication of E. coli tolerant cells compared with ceftazidime (20 mg/Kg) alone,"[15]; econazole alone 20 mg/kg i.p. every 12 hrs for 72 hrs, P=0.026",significantly more
same,protection of the test animals compared with ceftazidime alone,"[16]; ceftazidime + econazole (20 mg/kg each), inoculation of 7.6×10^5 CFU",slightly more effective
same,rate of eradication of PY1 tolerant cells in surviving mice,"[16]; ceftazidime + econazole, 7.6×10^5 CFU, after 72 h, P<0.0001",significantly higher
same,survival rate,"[16]; econazole 20 mg/kg + ceftazidime 20 mg/Kg, 1.5×10^6 CFU",80%
same,effect of co-administration with ampicillin,[17]; econazole + ampicillin,pronounced bactericidal synergistic effect
same,time to eradication of the tolerant sub-population,[17]; econazole + ampicillin,≤ 96 h
same,killing of tolerant cells,"[17]; econazole alone, 40 μM",slight killing effect
